Data published in ChEMBL document CHEMBL3046870, “Inhibition of chloroplast electron transport reactions by trifluralin and diallate” (Plant Physiol, 1977).
Active and inactive are the calls of the source. The calls are words filed in the database; no cut-off is given here.

Assays:
[1] = biological target: Photosystem II protein D1 (Spinacia oleracea) (UniProt P69560); assay: Inhibition of Spinacia oleracea (spinach) photosystem II assessed as light-induced re-reduction of Cyt-f at 100 uM added prior to illumination by dual wavelength spectrophotometer analysis
[2] = biological target: T1, Photosystem I iron-sulfur center (Spinacia oleracea) (UniProt P10098); assay: Inhibition of Spinacia oleracea (spinach) photosystem I assessed as light-induced oxidation of Cyt-f at 100 uM added prior to illumination by dual wavelength spectrophotometer analysis
T1 sequence (whole entry): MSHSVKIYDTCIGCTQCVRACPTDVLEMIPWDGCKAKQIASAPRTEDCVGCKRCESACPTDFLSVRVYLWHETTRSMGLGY

[3] = biological target: T2, Photosystem II protein D1 (Spinacia oleracea, UniProt P69560); assay: Inhibition of Spinacia oleracea (spinach) photosystem II assessed as electron flow from H20 to PDOX after 1 hr by polarographically
[4] = biological target: Photosystem II protein D1 (Spinacia oleracea) (UniProt P69560); assay: Inhibition of Spinacia oleracea (spinach) photosystem II assessed as electron flow from H20 to PDOX at 300 uM after 1 hr by polarographically
[5] = biological target: T1, Photosystem I iron-sulfur center (Spinacia oleracea); assay: Inhibition of Spinacia oleracea (spinach) photosystem I assessed as electron flow from ascorbate/DAD to methylviologen at >200 uM after 1 hr by polarographically
[6] = Inhibition of Spinacia oleracea (spinach) chloroplast electron transport chain assessed as electron flow from water to ferricyanide by polarographically
Spinacia oleracea [7] = assay: Inhibition of Spinacia oleracea (spinach) chloroplast electron transport chain-mediated rate of oxygen evolution per mg of chloroplast at 125 uM preincubated with DTT in dark condition for 5 min presence of 0.31 mM DTT
Spinacia oleracea [8] = assay: Inhibition of Spinacia oleracea (spinach) chloroplast electron transport chain-mediated rate of oxygen evolution per mg of chloroplast at 125 uM
Spinacia oleracea [9] = assay: Inhibition of Spinacia oleracea (spinach) chloroplast electron transport chain-mediated rate of oxygen evolution per mg of chloroplast at 125 uM in presence of 0.31 mM DTT
Spinacia oleracea [10] = assay: Inhibition of Spinacia oleracea (spinach) chloroplast electron transport chain-mediated rate of oxygen evolution per mg of chloroplast at 62.5 uM
Spinacia oleracea [11] = assay: Inhibition of Spinacia oleracea (spinach) chloroplast electron transport chain-mediated rate of oxygen evolution per mg of chloroplast at 62.5 uM in presence of 0.31 mM DTT
Spinacia oleracea [12] = assay: Inhibition of Spinacia oleracea (spinach) chloroplast electron transport chain-mediated sulfhydryl-induced ATP-Pi exchange assessed as inorganic phosphate release at 200 uM treated during activation stage
Spinacia oleracea [13] = assay: Inhibition of Spinacia oleracea (spinach) chloroplast electron transport chain-mediated sulfhydryl-induced ATP-Pi exchange assessed as inorganic phosphate release at 200 uM treated during incubation stage
[14] = Inhibition of Spinacia oleracea (spinach) chloroplast electron transport chain-mediated Mg2+-ATPase activity assessed as inorganic phosphate release
Spinacia oleracea [15] = assay: Inhibition of Spinacia oleracea (spinach) chloroplast electron transport chain-mediated light-induced ATP-Pi exchange assessed as inorganic phosphate release at 200 uM treated during incubation stage
Spinacia oleracea [16] = assay: Inhibition of Spinacia oleracea (spinach) chloroplast electron transport chain-mediated light-induced ATP-Pi exchange assessed as inorganic phosphate release at 200 uM treated during activation stage
Spinacia oleracea [17] = assay: Inhibition of Spinacia oleracea (spinach) chloroplast electron transport chain-mediated sulfhydryl-induced ATP-Pi exchange assessed as inorganic phosphate release at 200 uM
Spinacia oleracea [18] = assay: Inhibition of Spinacia oleracea (spinach) chloroplast electron transport chain-mediated light-induced ATP-Pi exchange assessed as inorganic phosphate release at 200 uM
[19] = Inhibition of Spinacia oleracea (spinach) chloroplast electron transport chain-mediated sulfhydryl-induced ATP-Pi exchange assessed as inorganic phosphate release
[20] = Inhibition of Spinacia oleracea (spinach) chloroplast electron transport chain-mediated light-induced ATP-Pi exchange assessed as inorganic phosphate release
Spinacia oleracea [21] = assay: Inhibition of Spinacia oleracea (spinach) chloroplast electron transport chain-mediated DAD-induced cyclic phosphorylation at 200 uM by polarographically
Spinacia oleracea [22] = assay: Inhibition of Spinacia oleracea (spinach) chloroplast electron transport chain-mediated DAD-induced cyclic phosphorylation at 100 uM by polarographically
Spinacia oleracea [23] = assay: Inhibition of Spinacia oleracea (spinach) chloroplast electron transport chain-mediated DAD-induced cyclic phosphorylation at 50 uM by polarographically
Spinacia oleracea [24] = assay: Inhibition of Spinacia oleracea (spinach) chloroplast electron transport chain-mediated DAD-induced cyclic phosphorylation at 25 uM by polarographically
Spinacia oleracea [25] = assay: Inhibition of Spinacia oleracea (spinach) chloroplast electron transport chain-mediated DAD-induced cyclic phosphorylation at 10 uM by polarographically
Spinacia oleracea [26] = assay: Inhibition of Spinacia oleracea (spinach) chloroplast electron transport chain-mediated PMS-induced cyclic phosphorylation at 200 uM […]
Spinacia oleracea [27] = assay: Inhibition of Spinacia oleracea (spinach) chloroplast electron transport chain-mediated PMS-induced cyclic phosphorylation at 100 uM by polarographically
Spinacia oleracea [28] = assay: Inhibition of Spinacia oleracea (spinach) chloroplast electron transport chain-mediated PMS-induced cyclic phosphorylation at 50 uM […]
Spinacia oleracea [29] = assay: Inhibition of Spinacia oleracea (spinach) chloroplast electron transport chain-mediated PMS-induced cyclic phosphorylation at 25 uM […]
Spinacia oleracea [30] = assay: Inhibition of Spinacia oleracea (spinach) chloroplast electron transport chain-mediated PMS-induced cyclic phosphorylation at 10 uM by polarographically
[31] = Inhibition of Spinacia oleracea (spinach) chloroplast electron transport chain-mediated PMS-induced cyclic phosphorylation […]
[32] = biological target: T2, Photosystem II protein D1; assay: Inhibition of Spinacia oleracea (spinach) photosystem II mediated noncyclic photophosphorylation assessed as 32P-orthophosphate incorporation into ATP […]
[33] = Inhibition of Spinacia oleracea (spinach) chloroplast electron transport chain-mediated noncyclic photophosphorylation assessed as 32P-orthophosphate incorporation into ATP […]
[34] = biological target: Photosystem II protein D1 (Spinacia oleracea) (UniProt P69560); assay: Inhibition of Spinacia oleracea (spinach) photosystem II assessed as light-induced re-reduction of Cyt-f at 200 uM added prior to illumination by dual wavelength spectrophotometer analysis
[35] = biological target: T1, Photosystem I iron-sulfur center (Spinacia oleracea); assay: Inhibition of Spinacia oleracea (spinach) photosystem I assessed as light-induced oxidation of Cyt-f at 200 uM added prior to illumination by dual wavelength spectrophotometer analysis
Spinacia oleracea [36] = assay: Inhibition of Spinacia oleracea (spinach) chloroplast electron transport chain assessed as residual activity of noncyclic electron flow using methylviologen as acceptor up to 300 uM by polarographically relative to control
[37] = Inhibition of Spinacia oleracea (spinach) chloroplast electron transport chain-mediated noncyclic electron flow using methylviologen as acceptor by polarographically
Spinacia oleracea [38] = assay: Inhibition of Spinacia oleracea (spinach) chloroplast electron transport chain assessed as residual electron flow from water to ferricyanide up to 300 uM by polarographically relative to control
Spinacia oleracea [39] = assay: Inhibition of Spinacia oleracea (spinach) chloroplast electron transport chain-mediated rate of oxygen evolution per mg of chloroplast at 62.5 uM preincubated with DTT in dark condition for 5 min presence of 0.31 mM DTT
Spinacia oleracea [40] = assay: Inhibition of Spinacia oleracea (spinach) chloroplast electron transport chain-mediated DAD-induced cyclic phosphorylation up to 200 uM by polarographically in presence of ascorbate in red light
Spinacia oleracea [41] = assay: Inhibition of Spinacia oleracea (spinach) chloroplast electron transport chain-mediated DAD-induced cyclic phosphorylation up to 200 uM by polarographically in absence of DCMU in red light
Spinacia oleracea [42] = assay: Inhibition of Spinacia oleracea (spinach) chloroplast electron transport chain-mediated DAD-induced cyclic phosphorylation up to 200 uM by polarographically in absence of DCMU in white light
[43] = biological target: Photosystem II protein D1 (Spinacia oleracea) (UniProt P69560); assay: Inhibition of Spinacia oleracea (spinach) photosystem II mediated noncyclic photophosphorylation assessed as 32P-orthophosphate incorporation into ATP up to 300 uM by polarographically
[44] = biological target: T1, Photosystem I iron-sulfur center (Spinacia oleracea); assay: Inhibition of Spinacia oleracea (spinach) photosystem I mediated noncyclic photophosphorylation assessed as 32P-orthophosphate incorporation into ATP up to 300 uM […]

CC(C)N(C(=O)SC/C(Cl)=C/Cl)C(C)C [Diallate]
inhibition [1]: Active
inhibition [2]: inactive
IC50 [3]: 75 µM
inhibition [4]: Active
inhibition [5]: inactive
IC50 [6]: 20 µM
Activity (Spinacia oleracea [7]): 30 µmol/h
Activity (Spinacia oleracea [8]): 40 µmol/h
Activity (Spinacia oleracea [9]): 30 µmol/h
Activity (Spinacia oleracea [10]): 105 µmol/h
Activity (Spinacia oleracea [11]): 97 µmol/h
inhibition (Spinacia oleracea [12]): Active
inhibition (Spinacia oleracea [13]): Active
IC50 [14]: 65 µM
inhibition (Spinacia oleracea [15]): Active
inhibition (Spinacia oleracea [16]): Active
inhibition (Spinacia oleracea [17]): Active
inhibition (Spinacia oleracea [18]): Active
IC50 [19]: 20 µM
IC50 [20]: 20 µM
inhibition (Spinacia oleracea [21]): 32%
inhibition (Spinacia oleracea [22]): 20%
inhibition (Spinacia oleracea [23]): 48%
inhibition (Spinacia oleracea [24]): 32%
inhibition (Spinacia oleracea [25]): 8%
inhibition (Spinacia oleracea [26]): 66%
inhibition (Spinacia oleracea [27]): 52%
inhibition (Spinacia oleracea [28]): 54%
inhibition (Spinacia oleracea [29]): 25%
inhibition (Spinacia oleracea [30]): 8%
IC50 [31]: 50 µM
IC50 [32]: 100 µM
IC50 [33]: 25 µM

CCCN(CCC)c1c([N+](=O)[O-])cc(C(F)(F)F)cc1[N+](=O)[O-] [TRIFLURALIN]
inhibition [34]: Active
inhibition [35]: inactive
Imax [4]: 50%
inhibition [5]: inactive
Activity (Spinacia oleracea [36]): 10%
IC50 [37]: 10 µM
IC50 [6]: 10 µM
Activity (Spinacia oleracea [38]): 10%
Activity (Spinacia oleracea [39]): 60 µmol/h
Activity (Spinacia oleracea [10]): 62 µmol/h
Activity (Spinacia oleracea [11]): 64 µmol/h
inhibition (Spinacia oleracea [12]): Active
inhibition (Spinacia oleracea [13]): Active
IC50 [14]: 90 µM
inhibition (Spinacia oleracea [15]): Active
inhibition (Spinacia oleracea [16]): Active
inhibition (Spinacia oleracea [17]): Active
inhibition (Spinacia oleracea [18]): Active
IC50 [19]: 20 µM
IC50 [20]: 20 µM
inhibition (Spinacia oleracea [40]): Active
inhibition (Spinacia oleracea [41]): Active
inhibition (Spinacia oleracea [42]): Active
inhibition (Spinacia oleracea [21]): 6%
inhibition (Spinacia oleracea [22]): 17%
inhibition (Spinacia oleracea [23]): 28%
inhibition (Spinacia oleracea [24]): 24%
inhibition (Spinacia oleracea [25]): 6%
inhibition (Spinacia oleracea [26]): 20%
inhibition (Spinacia oleracea [27]): 16%
inhibition (Spinacia oleracea [28]): 18%
inhibition (Spinacia oleracea [29]): 16%
inhibition (Spinacia oleracea [30]): 4%
inhibition [43]: inactive
inhibition [44]: inactive
IC50 [33]: 50 µM
